Data taken from US6939563B2, “Non-fermented osmotic laxative and method for treating and preventing colorectal cancers” (Inra-Institut National de la Recherche Agronomique, priority 1998, dated 2005).
Where two headings read alike, the source gives them in different places.

Assays:
[1] = tested on: colon carcinogenesis in rats; experiment: Wargovich et al. Int. J. Cancer 1995 (Ref 12): AOM, then 4 wks, then agent 4 wks; type: in vivo, rat; conditions: Ref 12 (Piroxicam line prints Ref 8); from published data
Description: (§1) Each value is the ratio between the value in the controls given a carcinogenic substance and the value found in animals treated with a preventive agent before or after the carcinogenic substance. The higher the value the greater the effectiveness of the agent.
(§2) The results given in Table 4 were established on the basis of published data indicated in references 2 to 12 in Table 5 below.

[2] = tested on: colon carcinogenesis in rats; conditions: AOM, then 4 wks, then agent 4 wks, cited from earlier work; for ACF/rat: Aspirin 0.2 g/kg (control 175), Piroxicam 0.2 (control 125), 13 cis Retinoic (control 140); for Large ACF: controls 55 (aspirin), 40 (piroxicam), 57 (retinoic)
[3] = tested on: colon carcinogenesis in rats; conditions: 3 x AOM 15 mg/kg, cited from earlier work; for ACF/rat: Hesperidin 1000 ppm (control 89 ± 17), Acetoxychavicol acet 100 ppm (control 118 ± 28), Auraptene (control 157 ± 21); for Crypt/ACF: controls 2.77 (Hesperidin), 2.54 (Acetoxychavicol acet), 2.91 (Auraptene)
[4] = tested on: colon carcinogenesis in rats; experiment: Tanaka et al. Carcinogenesis 1997 (Ref 11): ACF induced by 3 x AOM 15 mg/kg; type: in vivo, rat; conditions: from published data; for n° ACF/rat, ratio controls/treated: Hesperidin 1000 ppp, Auraptene 500 ppm
Description: as §1, §2

[5] = tested on: colon carcinogenesis in rats; conditions: ACF induced by 10x PhIP, DHA 4 h before each dose, cited from earlier work
[6] = tested on: colon carcinogenesis in rats; experiment: Takahashi et al. Carcinogenesis 1997 (Ref 9): ACF induced by 10x PhIP, DHA before each dose; type: in vivo, rat; conditions: from published data
Description: as §1, §2

[7] = tested on: colon carcinogenesis in rats; conditions: 20x AOM, 1 ml DHA with each dose, 12w, cited from earlier work
[8] = tested on: colon carcinogenesis in rats; experiment: Takahashi et al. Carcinogenesis 1997 (Ref 10): ACF induced by 20x AOM, DHA with each dose; type: in vivo, rat; conditions: from published data
Description: as §1, §2

[9] = tested on: colon carcinogenesis in rats; experiment: Pereira-Khoury Cancer Lett. 1991 (Ref 4): agent wk-1 to +4, 2x15 mg AOM; type: in vivo, rat; conditions: from published data
Description: as §1, §2

[10] = tested on: colon carcinogenesis in rats; conditions: agent wk-1 to +4, 2x15 mg AOM at wk 0, cited from earlier work; for Crypt/ACF: control 2.59 ± 0.14; for ACF/rat: control 228 ± 32
[11] = tested on: colon carcinogenesis in rats; conditions: agent day 1-35, AOM on d. 7 & 14, cited from earlier work; for Crypt/ACF: control 2.04 ± 0.04; for ACF/rat: control 26 ± 2.2
[12] = tested on: colon carcinogenesis in rats; experiment: Pereira et al. Carcinogenesis 1994 (Ref 5): agent day 1-35, AOM d. 7 & 14; type: in vivo, rat; conditions: from published data
Description: as §1, §2

[13] = tested on: colon carcinogenesis in rats; conditions: Vit. D3 10 ppm post DMH for 16 wks, cited from earlier work
[14] = tested on: colon carcinogenesis in rats; experiment: Salim et al. Jpn J Cancer Res 88 (Ref 8): Vit. D3 post DMH 16 wks; type: in vivo, rat; conditions: from published data
Description: as §1, §2

[15] = tested on: colon carcinogenesis in rats; experiment: Reddy et al. Carcinogenesis 1997 (Ref 6): inulin 10 wks, AOM wk 3 & 4; type: in vivo, rat; conditions: from published data
Description: as §1, §2

[16] = tested on: colon carcinogenesis in rats; conditions: Inulin 10% for 10 wks, AOM at wk 3 & 4, cited from earlier work

In the case of `CC1=C(/C=C/C(C)=C/C=C/C(C)=C\C(=O)O)C(C)(C)CCC1` [13 cis retinoic], the “Large ACF, ratio controls/treated” value [1] is given as 1.9, the “n° ACF/rat, ratio controls/treated” value [1] is given as 2.0 and the ACF/rat [2] is given as 70. The “Large ACF” value [2] was 30.

In the case of `C=C[C@H](OC(C)=O)c1ccc(OC(C)=O)cc1` [Acetoxychavicol acet.], the “Large ACF” value ([3]; Acetoxychavicol acet 100 ppm, control 60) is listed as 28, the ACF/rat [3] is listed as 70 ± 10 and the Crypt/ACF [3] is listed as 2.24. For the same molecule, the “n° ACF/rat, ratio controls/treated” value [4] was 1.7, the “Crypts/ACF, ratio controls/treated” value [4] was 1.13 and the “Large ACF, ratio controls/treated” value [4] was 2.1.

In the case of `CC(=O)Oc1ccccc1C(=O)O` [Aspirin], the “Large ACF, ratio controls/treated” value [1] is listed as 2.7, the “n° ACF/rat, ratio controls/treated” value [1] is listed as 1.7 and the ACF/rat [2] is listed as 100. For the same molecule, the “Large ACF” value [2] was 20.

For `CC(C)=CCC/C(C)=C/COc1ccc2ccc(=O)oc2c1` [Auraptene], the “n° ACF/rat, ratio controls/treated” value [4] was 2.3 and the “Crypts/ACF, ratio controls/treated” value [4] was 1.33.

For `CC/C=C\C/C=C\C/C=C\C/C=C\C/C=C\C/C=C\CCC(=O)O` [DHA], the Crypts/ACF ([5]; control 2.69) is listed as 2.39, the ACF/rat ([5]; control 22) is listed as 8 and the “Crypts/ACF, ratio controls/treated” value [6] is listed as 1.13. For the same molecule, the “n° ACF/rat, ratio controls/treated” value [6] was 2.8, the Crypt/ACF ([7]; control 3.2) was 2.95 and the “Large ACF” value ([7]; control 114) was 56. For the same molecule, the ACF/rat ([7]; control 308 ± 64) was 191 ± 40, the “Crypts/ACF, ratio controls/treated” value [8] was 1.08 and the “Large ACF, ratio controls/treated” value [8] was 2.0. For the same molecule, the “n° ACF/rat, ratio controls/treated” value [8] was 1.6.

In the case of `C[C@]12CC[C@H](O)CC1=CC[C@@H]1[C@@H]2CC[C@]2(C)C(=O)CC[C@@H]12` [Dehydroepiandrosterone], the “Crypts/ACF, ratio controls/treated” value [9] is listed as 1.06, the “n° ACF/rat, ratio controls/treated” value [9] is listed as 1.9 and the Crypt/ACF [10] is listed as 2.44 ± 0.07. The ACF/rat [10] was 121 ± 19.

For `COc1ccc([C@@H]2CC(=O)c3c(O)cc(O[C@@H]4O[C@H](CO[C@@H]5O[C@@H](C)[C@H](O)[C@@H](O)[C@H]5O)[C@@H](O)[C@H](O)[C@H]4O)cc3O2)cc1O` [Hesperidin], the ACF/rat [3] is listed as 34 ± 5, the Crypt/ACF [3] is listed as 2.22 and the “n° ACF/rat, ratio controls/treated” value [4] is listed as 2.6. For the same molecule, the “Crypts/ACF, ratio controls/treated” value [4] was 1.25.

For `CC(=O)N[C@@H](CS)C(=O)O` [N-acetylcysteine], the “Crypts/ACF, ratio controls/treated” value [9] is given as 1.10, the “n° ACF/rat, ratio controls/treated” value [9] is given as 1.5 and the Crypt/ACF [10] is given as 2.35 ± 0.07. The ACF/rat [10] was 151 ± 21.

In the case of `CN1C(C(=O)Nc2ccccn2)=C(O)c2ccccc2S1(=O)=O` [Piroxicam], the “Large ACF, ratio controls/treated” value [1] is listed as 8, the “n° ACF/rat, ratio controls/treated” value [1] is listed as 2.8 and the Crypt/ACF [11] is listed as 1.84 ± 0.1. For the same molecule, the ACF/rat [11] was 16 ± 2.8, the ACF/rat [2] was 45 and the “Large ACF” value [2] was 5. The “Crypts/ACF, ratio controls/treated” value [12] was 1.10 and the “n° ACF/rat, ratio controls/treated” value [12] was 1.6.

In the case of `CC1=C(CC(=O)O)c2cc(F)ccc2/C1=C\c1ccc([S+](C)[O-])cc1` (centres unmarked) [Sulindac], the Crypt/ACF [11] is listed as 1.82 ± 0.14, the ACF/rat [11] is listed as 15 ± 3.2 and the “Crypts/ACF, ratio controls/treated” value [12] is listed as 1.10. The “n° ACF/rat, ratio controls/treated” value [12] was 1.7.

In the case of `C=C1CC[C@H](O)C/C1=C/C=C1\CCC[C@]2(C)[C@@H]([C@H](C)CCCC(C)C)CC[C@@H]12` [Vit. D3], the “Large ACF” value ([13]; control 120) is given as 66, the ACF/rat ([13]; control 352) is given as 269 and the “Large ACF, ratio controls/treated” value [14] is given as 1.8. For the same molecule, the “n° ACF/rat, ratio controls/treated” value [14] was 1.3.

In the case of Inulin, the “Large ACF, ratio controls/treated” value [15] is listed as 1.4, the “n° ACF/rat, ratio controls/treated” value [15] is listed as 1.5 and the “Large ACF” value ([16]; control 56) is listed as 39. For the same molecule, the ACF/rat ([16]; control 120) was 78.

In the case of Oxothiazolidine, the “Crypts/ACF, ratio controls/treated” value [9] is listed as 1.09, the “n° ACF/rat, ratio controls/treated” value [9] is listed as 1.9 and the Crypt/ACF [10] is listed as 2.38 ± 0.08. The ACF/rat [10] was 121 ± 11.
